We go through ten compounds from US9815796B2 (Merck Sharp & Dohme Corp., priority 2013, dated 2017).

The target of one assay is Rhesus PDE2A3 (Macaca mulatta, UniProt B3VTJ2). Nature of the assay: PDE2 fluorescence polarization (IMAP FP) inhibition assay, rhesus enzyme. Format: biochemical, rhesus macaque. Put shortly: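 IMAP FP (mP from parallel and perpendicular fluorescence against substrate-only control) was read ≥1 h after adding binding reagent. The preceding 60 min room-temperature reaction contained FAM-cAMP (50 nM) and cGMP (1 uM) in pH 7.2 Tris buffer with MgCl2 and DTT. Enzyme was supernatant of sonicated AD293 cells expressing rhesus PDE2A3; compounds were 3-fold titrated, DMSO 1% final.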
Chain of Rhesus PDE2A3 (B3VTJ2 1-941): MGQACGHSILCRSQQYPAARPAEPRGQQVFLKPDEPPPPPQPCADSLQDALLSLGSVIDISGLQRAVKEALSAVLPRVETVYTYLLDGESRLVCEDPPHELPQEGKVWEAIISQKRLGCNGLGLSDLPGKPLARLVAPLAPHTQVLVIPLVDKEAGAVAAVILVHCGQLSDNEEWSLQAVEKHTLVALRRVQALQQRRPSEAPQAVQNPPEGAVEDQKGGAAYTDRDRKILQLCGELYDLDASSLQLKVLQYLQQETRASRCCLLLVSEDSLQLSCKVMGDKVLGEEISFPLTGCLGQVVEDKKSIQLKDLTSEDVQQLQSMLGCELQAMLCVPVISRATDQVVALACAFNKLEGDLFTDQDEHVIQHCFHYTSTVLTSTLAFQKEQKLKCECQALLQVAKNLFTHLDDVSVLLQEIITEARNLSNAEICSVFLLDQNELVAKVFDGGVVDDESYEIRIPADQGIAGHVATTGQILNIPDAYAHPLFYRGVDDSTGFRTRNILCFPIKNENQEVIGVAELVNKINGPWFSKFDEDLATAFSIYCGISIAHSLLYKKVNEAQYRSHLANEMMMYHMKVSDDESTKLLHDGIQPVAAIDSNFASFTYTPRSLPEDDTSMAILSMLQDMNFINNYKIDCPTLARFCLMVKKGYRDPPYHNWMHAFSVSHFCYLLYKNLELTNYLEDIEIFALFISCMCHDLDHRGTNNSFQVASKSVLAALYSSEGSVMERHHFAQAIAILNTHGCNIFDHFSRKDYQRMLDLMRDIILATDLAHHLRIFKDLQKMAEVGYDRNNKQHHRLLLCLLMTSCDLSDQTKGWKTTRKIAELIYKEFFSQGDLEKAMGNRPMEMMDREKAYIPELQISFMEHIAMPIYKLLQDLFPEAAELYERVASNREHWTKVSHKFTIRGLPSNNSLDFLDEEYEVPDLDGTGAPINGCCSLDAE
Background: Polarisation of emitted light reports the rotation of a fluorescent probe.

The next assay concerns the target human PDE2A1 (Homo sapiens (Human), UniProt O00408). The assay is described as follows: IMAP FP PDE selectivity panel, human PDE2A1. Format: biochemical. Put shortly:
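IMAP FP format: substrate 50 nM FAM-cAMP plus 1000 nM cGMP, enzyme (insect-cell GST-tagged human PDE2A1) at ~20% conversion, 60 min reaction at room temperature. Apparent inhibition constants calculated from parallel/perpendicular fluorescence with KM 10,000 nM.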

Setting [1] is: Rhesus PDE2, Lab A, read-out: Rhesus PDE2 Ki (nM) - Lab A.
[2] abbreviates: Rhesus PDE2, Lab B, read-out: Rhesus PDE2 Ki (nM) - Lab B.
[3] abbreviates: Human PDE2, Lab B, read-out: Human PDE2 Ki (nM) - Lab B.
Where [4] appears, read: Human PDE2, Lab A, read-out: Human PDE2 Ki (nM) - Lab A.

SMILES strings stand for the structures. Read-outs that look alike come from different tables or passages of the source.

Chain of human PDE2A1 (O00408 other isoform, or with tags, fused parts or gaps): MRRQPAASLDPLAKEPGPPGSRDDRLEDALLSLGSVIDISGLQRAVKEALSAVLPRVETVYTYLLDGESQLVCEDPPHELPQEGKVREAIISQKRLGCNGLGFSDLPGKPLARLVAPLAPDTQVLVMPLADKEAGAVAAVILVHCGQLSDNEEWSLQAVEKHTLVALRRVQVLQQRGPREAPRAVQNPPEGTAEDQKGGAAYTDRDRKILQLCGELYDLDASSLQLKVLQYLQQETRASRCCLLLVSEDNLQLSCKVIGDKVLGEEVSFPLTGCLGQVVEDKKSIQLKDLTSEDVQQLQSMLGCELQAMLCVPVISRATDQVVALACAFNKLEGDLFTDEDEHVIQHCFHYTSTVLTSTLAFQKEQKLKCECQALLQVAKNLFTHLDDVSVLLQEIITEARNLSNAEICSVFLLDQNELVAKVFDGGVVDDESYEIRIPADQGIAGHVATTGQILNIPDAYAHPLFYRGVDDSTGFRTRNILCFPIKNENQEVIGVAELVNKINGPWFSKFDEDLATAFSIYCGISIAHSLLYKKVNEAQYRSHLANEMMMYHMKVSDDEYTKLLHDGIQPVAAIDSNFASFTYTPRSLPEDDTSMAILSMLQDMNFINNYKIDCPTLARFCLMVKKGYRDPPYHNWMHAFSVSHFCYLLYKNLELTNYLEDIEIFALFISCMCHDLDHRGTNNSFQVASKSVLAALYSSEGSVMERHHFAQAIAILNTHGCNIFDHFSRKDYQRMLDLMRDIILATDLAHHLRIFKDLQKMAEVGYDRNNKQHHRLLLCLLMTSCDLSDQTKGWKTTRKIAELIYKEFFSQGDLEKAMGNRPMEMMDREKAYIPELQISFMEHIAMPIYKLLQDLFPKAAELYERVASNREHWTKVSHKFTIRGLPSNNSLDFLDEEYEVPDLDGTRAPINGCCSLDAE

As usually defined, the Ki is the dissociation constant of the complex between target and ligand, obtained from inhibition or displacement. With `CC[C@@H](NC(=O)c1cc(=O)[nH]c(C2CC2)n1)c1ccc(SC(F)(F)F)c(F)c1` [Example 246, 2-cyclopropyl-N-[(1R)-1-{3-fluoro-4-[(trifluoromethyl)sulfanyl]phenyl}propyl]-6-oxo-1,6-dihydropyrimidine-4-carboxamide], the Ki amounted to 3.1 nM at Rhesus PDE2A3 (setting [1]), 5.4 nM at Rhesus PDE2A3 (setting [2]) and 5.2 nM at human PDE2A1 (setting [3]).
Consider `CC[C@@H](NC(=O)c1cc(=O)[nH]c(Cc2ccc(OC)cc2)n1)c1ccc(S(F)(F)(F)(F)F)cc1` [Example 482, 2-(4-methoxybenzyl)-6-oxo-N-{(1R)-1-[4-(pentafluoro-λ^6-sulfanyl)phenyl]propyl}-1,6-dihydropyrimidine-4-carboxamide], for which the Ki turned out to be 3.3 nM at Rhesus PDE2A3 (setting [2]) and 3.4 nM at human PDE2A1 (setting [3]).
As to `C[C@@H](NC(=O)c1cc(=O)[nH]c(C2CC2)n1)c1ccc(C(F)(F)F)cc1F` [Example 237, 2-cyclopropyl-N-{(1R)-1-[2-fluoro-4-(trifluoromethyl)phenyl]ethyl}-6-oxo-1,6-dihydropyrimidine-4-carboxamide], the values for the Ki on Rhesus PDE2A3 (setting [1]) and on human PDE2A1 (setting [4]) were 61 nM and 35 nM, respectively.
With `CC(C)[C@@H](NC(=O)c1cc(=O)[nH]c(-c2ccccc2)n1)c1ccc(C(F)(F)F)c(F)c1` [Example 383, N-{(1R)-1-[3-fluoro-4-(trifluoromethyl)phenyl]-2-methylpropyl}-6-oxo-2-phenyl-1,6-dihydropyrimidine-4-carboxamide], the Ki is 4.2 nM at Rhesus PDE2A3 (setting [2]) and 2.9 nM on human PDE2A1 (setting [3]).
The corresponding values for `COc1ccc(Cc2nc(C(=O)N[C@@H](c3ccc(SC(F)(F)F)c(F)c3)C(C)C)cc(=O)[nH]2)cc1F` [Example 512, 2-(3-fluoro-4-methoxybenzyl)-N-[(1R)-1-{3-fluoro-4-[(trifluoromethyl)sulfanyl]phenyl}-2-methylpropyl]-6-oxo-1,6-dihydropyrimidine-4-carboxamide] are 1.5 nM and 1.6 nM.
On to `CC(C)(C)[C@@H](NC(=O)c1cc(=O)[nH]c(C2CC2)n1)c1ccc(C(F)(F)F)c(F)c1` [Example 438, 2-cyclopropyl-N-{(1R)-1-[3-fluoro-4-(trifluoromethyl)phenyl]-2,2-dimethylpropyl}-6-oxo-1,6-dihydropyrimidine-4-carboxamide], for which the Ki was determined as 1.5 nM at Rhesus PDE2A3 (setting [2]) and 1.3 nM at human PDE2A1 (setting [3]).
For `CC(C)(C)[C@@H](NC(=O)c1cc(=O)[nH]c(C2CC2)n1)c1ccc(CC(F)(F)F)cc1` [Example 441, 2-cyclopropyl-N-{(1R)-2,2-dimethyl-1-[4-(2,2,2-trifluoroethyl)phenyl]propyl}-6-oxo-1,6-dihydropyrimidine-4-carboxamide] the same measures were 3.8 nM and 6.4 nM.
For `O=C(NC(c1ccc(C(F)(F)F)cc1)C(F)(F)F)c1cc(=O)[nH]c(-c2ccccc2)n1` (stereo not drawn) [Example 393, 6-oxo-2-phenyl-N-{2,2,2-trifluoro-1-[4-(trifluoromethyl)phenyl]ethyl}-1,6-dihydropyrimidine-4-carboxamide] the same measures were 55 nM and 49 nM.
For `Cc1nc(C(=O)N[C@@H](c2ccc(C(F)(F)F)c(F)c2)C2(C)CC2)cc(=O)[nH]1` [Example 613, N-[(R)-[3-fluoro-4-(trifluoromethyl)phenyl](1-methylcyclopropyl)methyl]-2-methyl-6-oxo-1,6-dihydropyrimidine-4-carboxamide] the same measures were 13 nM and 12 nM.
Turning to `CC(C)(NC(=O)c1cc(=O)[nH]c(-c2ncccn2)n1)c1ccc(C(F)(F)F)cc1` [Example 288, N-{1-methyl-1-[4-(trifluoromethyl)phenyl]ethyl}-6-oxo-1,6-dihydro-2,2′-bipyrimidine-4-carboxamide], the figures for the inhibitory constant (Ki) on Rhesus PDE2A3 (setting [1]) and on human PDE2A1 (setting [4]) were 152 nM and 123 nM, respectively.
